From article PMC9515143, “Phosphorylation of Jhd2 by the Ras-cAMP-PKA(Tpk2) pathway regulates histone modifications and autophagy” (Nature Communications, 2022)

Tested on: H3K4me1 and H3K4me2
Assay: Western blot of H3K4me1 and H3K4me2 in yeast cells treated with glucose
Type: cell-based, budding yeast (Saccharomyces cerevisiae)
Settings: WT cells, different glucose concentrations, 0.5 hr
Protocol: To examine the effect of glucose on histone modifications, we grew yeast cells in 2% glucose-containing medium (YPD) until log phase. Cells were collected and then grown in the medium containing different concentrations of glucose for 0.5 hr.
To examine the effect of glucose on histone modifications, yeast cells were grown in 2% glucose-containing YPD (Yeast Extract Peptone Dextrose) medium until OD600 of 0.7–1.0. Cells were then collected, washed and resuspended in YP medium for 3 hr followed by treatment with different concentrations of glucose for 0.5 hr. For 1NM-PP1 (MCE, HY-13804) treatment, cells were grown in 2% YPD until OD600 of 0.7–1.0. Cells were then treated with 25 μM 1NM-PP1 for 0.5 hr. For FBP and pyruvate treatment, cells were pre-treated with Zymolase (Mpbio, 08320921) to increase the permeability. In brief, cells were grown in YPD medium until OD600 of 0.7–1.0, centrifuged and resuspended in 1 ml SB buffer (100 mM Sorbitol, 20 mM Tris pH 7.4). 10 μl Zymolase was then added and incubated at 30 °C for 15 min. The spheroplasts were washed and cultured in YPD medium containing different concentrations of FBP and pyruvate for 3 hr.
Cells were grown in 5 ml YPD or selective medium until OD600 of 0.7–1.0. […] The protein bands were visualized using the ECL Chemiluminescence Detection Kit (Bio-Rad, 170–5061) and quantified with Image J software (v.1.8.0).

With `OC[C@H]1OC(O)[C@H](O)[C@@H](O)[C@@H]1O` (stereo partly shown) [glucose] the “H3K4me1 and H3K4me2 level” value was “had no effect on H3K4me1 and H3K4me2”.
